Laboratory results as given in patent US20240366540A1, “MITOFUSIN INHIBITORS AND USES THEREOF” (Albert Einstein College of Medicine, priority 2021, published 2024).
Starred links: 1 amine or outer side, 2 acyl side, 3 side chain; linkers in the order of their positions; H or OH if unused. Positions of bridges follow the written chain, without caps; N, C: chain ends. Non-standard residues stand in square brackets, D forms with d. Residues, ends and D or L forms follow the SMILES beside them. Chains are numbered I, II in the order given. Hexamethylenediamine = C(CCCN[*:2])CCN[*:1]; Dip = N[C@H](C(=O)O)C(c1ccccc1)c1ccccc1; Chg = N[C@H](C(=O)O)C1CCCCC1; NMeA = CN[C@@H](C)C(=O)O

B1: MFN2 (endogenous, in mitochondria isolated from MEFs) (other, mouse (MEFs), UniProt Q80U63 1-757, looked up)
chain: MSLLFSRCNSIVTVKKDKRHMAEVNASPLKHFVTAKKKINGIFEQLGAYIQESASFLEDTHRNTELDPVTTEEQVLDVKGYLSKVRGISEVLARRHMKVAFFGRTSNGKSTVINAMLWDKVLPSGIGHTTNCFLRVGGTDGHEAFLLTEGSEEKKSVKTVNQLAHALHQDEQLHAGSMVSVMWPNSKCPLLKDDLVLMDSPGIDVTTELDSWIDKFCLDADVFVLVANSESTLMQTEKQFFHKVSERLSRPNIFILNNRWDASASEPEYMEEVRRQHMERCTSFLVDELGVVDRAQAGDRIFFVSAKEVLSARVQKAQGMPEGGGALAEGFQVRMFEFQNFERQFEECISQSAVKTKFEQHTVRAKQIAEAVRLIMDSLHIAAQEQRVYCLEMREERQDRLRFIDKQLELLAQDYKLRIKQITEEVERQVSTAMAEEIRRLSVLVDEYQMDFHPSPVVLKVYKNELHRHIEEGLGRNLSDRCSTAIASSLQTMQQDMIDGLKPLLPVSMRNQIDMLVPRQCFSLSYDLNCDKLCADFQEDIEFHFSLGWTMLVNRFLGPKNSRRALLGYSDQVQRPLPLTPANPSMPPLPQSSLTQEELMVSMVTGLASLTSRTSMGILVVGGVVWKAVGWRLIALSFGLYGLLYVYERLTWTTKAKERAFKRQFVEYASEKLQLIISYTGSNCSHQVQQELSGTFAHLCQQVDITRDNLEQEIAAMNKKVEALDSLQSRAKLLRNKAGWLDSELNMFTHQYLQPSR
notes: whole, on cells; The protein stood in isolated mitochondria, not on whole cells; It was solubilised with digitonin and resolved by blue native PAGE; also called mitofusin-2

Legend:
cells = assay: Cell death assay (Annexin V / propidium iodide); format: cell-based
Experimental: Cell death assay. Cells (2×10^5 cells/well) were seeded in a 6-well plate and treated with the indicated drugs for 6 hours. Cells were dissociated using Accutase (Thermo Fisher; Cat. #00-4555-56) in order to avoid accidental exposure of phosphatidylserine on the outer plasma membrane. Cell death was evaluated with Dead Cell Apoptosis Kit with Annexin V Alexa Fluor™ 488 & Propidium Iodide (Thermo Fisher; Cat. #V13241) according to manufacturer's protocol. Data was acquired by BD LSRII flow cytometer system using BD FACSDiva software. Data was analyzed by FlowJo (BD).

MEFs [1] = assay: Mitochondrial aspect ratio (Mito AR), live cell imaging; conditions: for activity to promote mitochondrial fusion or fision: MASMs: fusion, MFIs: fission; for capacity to promote mitochondrial fragmentation in cells (activity of MFI8 analogue): compared with MFI8; for mitochondrial aspect ratio: MEFs, MitoTracker Green
Experimental: Live cell imaging. MEFs were seeded on chamber slides (MatTek Corporation: 35 mm dishes, No. 1.5, 14 mm glass diameter) at ˜70% confluence. […] Images were taken with Leica SP5 inverted confocal microscope. Data were analyzed with Image J software. >200 mitochondria were measured per condition in mitochondrial aspect ratio.
Measurement of mitochondrial aspect ratio (Mito AR). Images that depict stained mitochondria with mitotracker green were analyzed using FIJI We measured for each mitochondrion its length and width. Then, we divided the length by the width for each mitochondrion to get its mitochondrial aspect ratio. >200 mitochondria were measured per treatment.

MEFs [2] = assay: Caspase-3/7 activation assay; format: cell-based, mouse; conditions: 6 hr, Caspase-Glo 3/7
Experimental: Caspase-3/7 activation assay. Cells (5×10^3 cells/well) were seeded in a 96-well white plate and treated with MASM7, MFI8. Caspase 3/7 activation was measured after 6 hr by addition of the Caspase-Glo 3/7 reagent according to the manufacturer's protocol (Promega). Luminescence was detected by a F200 PRO microplate reader (TECAN). Caspase assays were performed in at least triplicate and the data normalized to vehicle-treated control wells. Dilutions of MASM7 or MFI8 were performed using a TECAN D300e Digital Dispenser from 10 mM stocks.

[3] = target: T1, HR2 domain of MFN2 (residues 678-757) (Homo sapiens, UniProt O95140); assay: Microscale thermophoresis (MST) binding; conditions: His-tagged MFN2-HR2, 30° C.
T1 sequence (O95140 678-757): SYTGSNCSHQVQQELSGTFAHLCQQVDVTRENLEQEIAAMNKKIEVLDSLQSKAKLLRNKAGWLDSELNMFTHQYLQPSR
Experimental: Microscale Thermopheresis. Freshly purified His-tagged MFN2-HR2 domain was used for Microscale Thermophoresis (MST) binding studies. For protein labelling, a fresh stock of 5 μM His-tag-RED-tris-NTA 2nd generation dye (Nanotemper) in 25 mM Hepes pH 7.5, 100 mM NaCl, 0.005% Tween-20 (assay buffer) was used to label 500 nM of MFN2-HR2 in the same buffer. The labeling reaction was incubated for 30 min at RT and centrifuged at 15.000×g at 4° C. for 10 min. Labelled protein from the supernatant was kept on ice and used immediately. Compounds were serially diluted in 100% DMSO. Immediately before mixing with labeled protein, the dilution series was transferred in assay buffer to reach 2% DMSO. 10 μl of each compound in the final series was mixed with 10 μl of labeled protein and samples were incubated for 5 min at 30° C. before MST measurement using a MonolithNT.115 instrument (Nanotemper). Peptides were diluted in assay buffer plus 2% DMSO and treated as above. […] Kd values were obtained from non-linear regression fits of normalized data to a three or four parameter logistic curve, using GraphPad Prism 9.

[4] = target: the molecule itself; assay: blue native PAGE of digitonin lysates of isolated MEF mitochondria, anti-MFN2 blot

Molecule	activity to promote mitochondrial fusion or fision (MEFs [1])	capacity to promote mitochondrial fragmentation in cells (activity of MFI8 analogue) (MEFs [1])	direct binding to the HR2 domain of MFN2 (MST) [3]	mitochondrial aspect ratio (MEFs [1])	other results
CN[C@@H](C)C(=O)N[C@H](C(=O)N1CCC[C@H]1C(=O)N[C@H](C(=O)NCCCCCCNC(=O)[C@@H](NC(=O)[C@@H]1CCCN1C(=O)[C@@H](NC(=O)[C@H](C)NC)C1CCCCC1)C(c1ccccc1)c1ccccc1)C(c1ccccc1)c1ccccc1)C1CCCCC1 [BV6, reference compound] (I: H-[NMeA][Chg]P[Dip] / II: H-[NMeA][Chg]P[Dip]; linker I:C-II:C via Hexamethylenediamine)	–	–	–	–	cell death upon BV6 treatment (cells; deletion of MFNs): sensitized cells to BV6 treatment
Cc1cccc(NC(C)c2ccccc2O)c1C (centres unmarked) [MFI22, 2-(1-((2,3-Dimethylphenyl)amino)ethyl)phenol]	inability or weak activity	significantly reduced the capacity of the compound to promote mitochondrial fragmentation	did not demonstrate measurable binding	–	sensitization to BV6-induced cell death (cells; in combination with BV6): did not sensitize cells to BV6 treatment; caspase-3/7 activity (MEFs [2]): did not increase caspase-3/7 activity
Cc1cccc(NCc2cc(Cl)ccc2O)c1C [MFI23, 4-Chloro-2-(((2,3-dimethylphenyl)amino)methyl)phenol]	–	minimal effect on the activity	demonstrated direct binding	decreasing	–
Cc1cccc(NCc2cc(Cl)ccc2O)c1 [MFI24, 4-Chloro-2-((m-tolylamino)methyl)phenol]	–	–	–	did not reduce mitochondrial aspect ratio	–
Cc1cccc(NC(C)c2cccc(Cl)c2)c1C (centres unmarked) [MFI26, N-(1-(3-chlorophenyl)ethyl)-2,3-dimethylaniline]	inability or weak activity	detrimental for the activity	did not demonstrate measurable binding	–	–
B1	–	–	–	–	binding result [4]: binds
